{"source": "patent US20080221110A1", "about": "(priority 2005, published 2008)", "tested_on": "a strain of at least one of the organisms listed (panel of Gram-positive organisms and Gram-negative strains)", "assay": "organism not typed", "assay_type": "cell-based", "details": "read-out: MIC (minimum inhibitory concentration)", "data": [{"smiles": "O=c1ccc2ccc(F)c3c2n1CC3CN1CCC(NC[C@H]2COc3ccnnc3O2)CC1", "note": "(mixture of isomers) [Example 62, (1R/S)-1-[(4-{[(7S)-6,7-dihydro[1,4]dioxino[2,3-c]pyridazin-7-ylmethyl]amino}-1-piperidinyl)methyl]-9-fluoro-1,2-dihydro-4H-pyrrolo[3,2,1-ij]quinolin-4-one]", "values": [{"measurement": "MIC", "result": "≤ 4", "unit": "µg/mL"}]}]}
